What was measured:
Assay type in all cases: in vivo
Diabrotica balteata = test: Activity against Diabrotica balteata (corn root worm), sprayed maize sprouts on agar; conditions: 96 h, application rate 200 ppm, L2 larvae, assessed 4 days after infestation vs untreated, read-out: effect in at least one of the two categories (mortality or growth inhibition)
Experimental: Example B2: Activity Against Diabrotica Balteata (Corn Root Worm)
Maize sprouts placed onto an agar layer in 24-well microtiter plates were treated with aqueous test solutions prepared from 10′000 ppm DMSO stock solutions by spraying. After drying, the plates were infested with L2 larvae (6 to 10 per well). The samples were assessed for mortality and growth inhibition in comparison to untreated samples 4 days after infestation.

Chilo suppressalis = test: Activity against Chilo suppressalis (striped rice stemborer), artificial diet in 24-well plates; conditions: 144 h, application rate 200 ppm, L2 larvae, assessed 6 days after infestation vs untreated, read-out: control (at least one of mortality, anti-feedant effect, growth inhibition)
Experimental: Example B1: Activity Against Chilo suppressalis (Striped Rice Stemborer)
24-well microtiter plates with artificial diet were treated with aqueous test solutions prepared from 10′000 ppm DMSO stock solutions by pipetting. After drying, the plates were infested with L2 larvae (6-8 per well). The samples were assessed for mortality, anti-feeding effect, and growth inhibition in comparison to untreated samples 6 days after infestation. Control of Chilo suppressalis by a test sample is given when at least one of the categories mortality, anti-feedant effect, and growth inhibition is higher than the untreated sample.

Plutella xylostella = test: Activity against Plutella xylostella (diamond back moth), artificial diet in 24-well plates; conditions: 192 h, application rate 200 ppm, eggs, assessed 8 days after infestation vs untreated, read-out: effect in at least one of the two categories (mortality or growth inhibition)
Experimental: Example B3: Activity Against Plutella xylostella (Diamond Back Moth)
24-well microtiter plates with artificial diet were treated with aqueous test solutions prepared from 10′000 ppm DMSO stock solutions by pipetting. After drying, Plutella eggs were pipetted through a plastic stencil onto a gel blotting paper and the plate was closed with it. The samples were assessed for mortality and growth inhibition in comparison to untreated samples 8 days after infestation.

Spodoptera littoralis = test: Activity against Spodoptera littoralis (Egyptian cotton leaf worm), sprayed cotton leaf discs; conditions: foliar, 72 h, application rate 200 ppm, L1 larvae, assessed 3 days after infestation vs untreated, read-out: control (at least one of mortality, anti-feedant effect, growth inhibition)
Experimental: Example B4: Activity Against Spodoptera littoralis (Egyptian Cotton Leaf Worm)
Cotton leaf discs were placed onto agar in 24-well microtiter plates and sprayed with aqueous test solutions prepared from 10′000 ppm DMSO stock solutions. After drying the leaf discs were infested with five L1 larvae. The samples were assessed for mortality, anti-feeding effect, and growth inhibition in comparison to untreated samples 3 days after infestation. Control of Spodoptera littoralis by a test sample is given when at least one of the categories mortality, anti-feedant effect, and growth inhibition is higher than the untreated sample.

CCS(=O)(=O)c1c(-c2coc3cc(C(F)(F)F)ccc3c2=O)nc2cc(C(F)(F)F)ccn12 [P.1, 3-[3-ethylsulfonyl-7-(trifluoromethyl)imidazo[1,2-a]pyridin-2-yl]-7-(trifluoromethyl)chromen-4-one]
≥ 80%: percent effect (mortality or growth inhibition) at 200 ppm (Diabrotica balteata) | percent control (mortality, anti-feedant effect or growth inhibition) at 200 ppm (Chilo suppressalis) | percent effect (mortality or growth inhibition) at 200 ppm (Plutella xylostella) | percent control (mortality, anti-feedant effect or growth inhibition) at 200 ppm (Spodoptera littoralis)
